Experimental data published in ChEMBL document CHEMBL1149378, “Naphthofuroquinone derivatives: inhibition of receptor tyrosine kinases” (Bioorg Med Chem Lett, 2006).
The source made the active and inactive calls. The calls are words filed in the database; no cut-off is given here.

Columns and labels:
[1] = biological target: T1, Epidermal growth factor receptor (Homo sapiens, UniProt P00533); assay: Inhibition of MEK2 phosphorylation in EGF-treated A431 cells at 1 uM; assay type: functional, cell-based; details: A-431
T1 sequence (P00533 whole entry): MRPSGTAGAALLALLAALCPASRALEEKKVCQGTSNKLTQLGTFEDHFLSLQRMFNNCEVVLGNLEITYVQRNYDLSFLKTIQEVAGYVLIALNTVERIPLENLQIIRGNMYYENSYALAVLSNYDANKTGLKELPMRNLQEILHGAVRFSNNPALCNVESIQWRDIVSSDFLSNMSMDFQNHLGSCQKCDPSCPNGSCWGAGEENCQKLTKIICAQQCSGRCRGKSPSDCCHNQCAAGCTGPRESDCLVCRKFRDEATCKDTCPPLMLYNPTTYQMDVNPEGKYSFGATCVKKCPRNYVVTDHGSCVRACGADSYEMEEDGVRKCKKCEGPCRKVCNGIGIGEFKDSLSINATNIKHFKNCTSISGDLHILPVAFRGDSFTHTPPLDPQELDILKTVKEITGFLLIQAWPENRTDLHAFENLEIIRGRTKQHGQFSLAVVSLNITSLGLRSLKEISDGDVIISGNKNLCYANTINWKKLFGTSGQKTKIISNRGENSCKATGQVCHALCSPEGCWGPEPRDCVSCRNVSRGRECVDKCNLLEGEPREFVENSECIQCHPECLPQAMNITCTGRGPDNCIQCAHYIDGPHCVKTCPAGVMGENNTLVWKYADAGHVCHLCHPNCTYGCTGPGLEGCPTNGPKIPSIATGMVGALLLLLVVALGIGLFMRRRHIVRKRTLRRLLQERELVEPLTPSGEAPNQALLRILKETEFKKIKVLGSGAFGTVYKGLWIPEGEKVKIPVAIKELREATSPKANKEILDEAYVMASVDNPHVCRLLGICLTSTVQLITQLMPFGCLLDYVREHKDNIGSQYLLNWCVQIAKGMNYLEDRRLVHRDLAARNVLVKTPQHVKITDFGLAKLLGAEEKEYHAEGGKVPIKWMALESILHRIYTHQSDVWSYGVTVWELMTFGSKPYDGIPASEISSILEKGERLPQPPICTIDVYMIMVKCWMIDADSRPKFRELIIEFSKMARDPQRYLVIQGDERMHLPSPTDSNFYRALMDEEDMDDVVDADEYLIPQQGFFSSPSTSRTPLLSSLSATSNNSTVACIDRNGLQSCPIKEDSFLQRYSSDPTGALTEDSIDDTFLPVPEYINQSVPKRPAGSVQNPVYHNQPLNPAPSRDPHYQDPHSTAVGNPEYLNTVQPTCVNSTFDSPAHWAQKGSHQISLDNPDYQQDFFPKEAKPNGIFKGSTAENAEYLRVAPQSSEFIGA

[2] = biological target: T2, Platelet-derived growth factor receptor beta (Homo sapiens, UniProt P09619); assay: Inhibitory activity against PDGFRbeta kinase at 20 uM
T2 sequence (P09619 whole entry): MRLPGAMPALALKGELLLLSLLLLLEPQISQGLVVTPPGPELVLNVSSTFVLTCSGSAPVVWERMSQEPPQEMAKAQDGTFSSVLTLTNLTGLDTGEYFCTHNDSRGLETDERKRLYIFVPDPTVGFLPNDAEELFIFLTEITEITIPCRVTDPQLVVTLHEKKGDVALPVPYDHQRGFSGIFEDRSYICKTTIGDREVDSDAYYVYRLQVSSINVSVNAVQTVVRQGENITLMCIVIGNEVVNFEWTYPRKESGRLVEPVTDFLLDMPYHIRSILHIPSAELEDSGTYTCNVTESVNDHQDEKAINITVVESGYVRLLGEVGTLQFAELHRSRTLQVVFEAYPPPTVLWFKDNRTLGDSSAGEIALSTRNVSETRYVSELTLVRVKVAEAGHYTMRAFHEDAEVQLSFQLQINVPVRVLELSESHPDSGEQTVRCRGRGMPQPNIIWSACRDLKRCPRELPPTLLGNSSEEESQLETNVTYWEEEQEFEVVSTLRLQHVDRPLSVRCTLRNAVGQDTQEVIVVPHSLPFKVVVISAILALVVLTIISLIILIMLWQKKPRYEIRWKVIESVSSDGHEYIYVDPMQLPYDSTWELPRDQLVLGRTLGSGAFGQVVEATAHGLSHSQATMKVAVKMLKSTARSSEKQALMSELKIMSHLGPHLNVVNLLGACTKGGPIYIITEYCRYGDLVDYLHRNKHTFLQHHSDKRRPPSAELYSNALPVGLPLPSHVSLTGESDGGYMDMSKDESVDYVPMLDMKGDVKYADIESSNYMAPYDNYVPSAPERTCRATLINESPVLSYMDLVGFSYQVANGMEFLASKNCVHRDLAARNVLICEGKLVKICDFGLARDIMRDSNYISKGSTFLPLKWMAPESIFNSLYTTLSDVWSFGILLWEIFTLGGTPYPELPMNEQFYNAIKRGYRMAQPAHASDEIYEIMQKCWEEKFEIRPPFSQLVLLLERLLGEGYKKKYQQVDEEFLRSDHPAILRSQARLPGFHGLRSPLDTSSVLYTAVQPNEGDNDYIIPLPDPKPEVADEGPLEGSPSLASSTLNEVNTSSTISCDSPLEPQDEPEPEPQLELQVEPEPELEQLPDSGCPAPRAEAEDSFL

[3] = biological target: T3, Fibroblast growth factor receptor 1 (Homo sapiens, UniProt P11362); assay: Inhibitory activity against FGFR1 kinase
[4] = test system: A-431; assay: Cytotoxicity against epidermoid carcinoma A431 cell line; assay type: functional, cell-based; details: Homo sapiens
[5] = biological target: T1, Epidermal growth factor receptor; assay: Inhibition of ERK2 phosphorylation in EGF-treated A431 cells at 1 uM; assay type: functional, cell-based; details: A-431
[6] = biological target: T1, Epidermal growth factor receptor; assay: Intracellular inhibition of autophosphorylation of EGFR in A431 cells; assay type: functional, cell-based; details: A-431
[7] = biological target: T1, Epidermal growth factor receptor; assay: Inhibition of ERK1 phosphorylation in EGF-treated A431 cells at 1 uM; assay type: functional, cell-based; details: A-431
[8] = biological target: T3, Fibroblast growth factor receptor 1; assay: Inhibitory activity against FGFR1 kinase at 20 uM
Target sequence in this assay (P11362 22-822 limits assumed): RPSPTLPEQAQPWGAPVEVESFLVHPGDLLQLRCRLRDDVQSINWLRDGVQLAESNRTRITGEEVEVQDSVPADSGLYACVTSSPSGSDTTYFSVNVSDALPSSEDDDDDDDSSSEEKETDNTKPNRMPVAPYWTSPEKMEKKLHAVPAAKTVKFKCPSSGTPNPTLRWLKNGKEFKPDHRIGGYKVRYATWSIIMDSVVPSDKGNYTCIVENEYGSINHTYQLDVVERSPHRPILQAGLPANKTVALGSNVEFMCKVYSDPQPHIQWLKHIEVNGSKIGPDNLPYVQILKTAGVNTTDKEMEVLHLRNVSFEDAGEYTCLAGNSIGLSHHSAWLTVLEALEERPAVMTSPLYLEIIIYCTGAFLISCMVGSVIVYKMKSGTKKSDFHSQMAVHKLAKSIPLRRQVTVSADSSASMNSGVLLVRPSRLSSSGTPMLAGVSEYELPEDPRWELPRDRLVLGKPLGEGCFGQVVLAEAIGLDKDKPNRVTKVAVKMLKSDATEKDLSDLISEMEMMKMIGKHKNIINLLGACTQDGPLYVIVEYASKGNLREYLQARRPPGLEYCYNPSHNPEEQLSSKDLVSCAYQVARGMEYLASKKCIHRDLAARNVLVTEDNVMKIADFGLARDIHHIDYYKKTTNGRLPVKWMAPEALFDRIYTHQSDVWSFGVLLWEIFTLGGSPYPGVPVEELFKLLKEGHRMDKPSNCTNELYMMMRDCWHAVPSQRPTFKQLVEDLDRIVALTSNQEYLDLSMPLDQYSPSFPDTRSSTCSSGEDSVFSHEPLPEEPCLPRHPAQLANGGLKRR

[9] = biological target: T1, Epidermal growth factor receptor; assay: Inhibition of MEK1 phosphorylation in EGF-treated A431 cells at 1 uM; assay type: functional, cell-based; details: A-431
[10] = biological target: T1, Epidermal growth factor receptor; assay: Inhibitory activity against EGFR kinase
[11] = biological target: T2, Platelet-derived growth factor receptor beta; assay: Inhibitory activity against PDGFRbeta kinase
[12] = test system: HUVEC; assay: Inhibition of HUVEC tube formation at 10 uM; assay type: functional, cell-based; details: Homo sapiens
[13] = biological target: T4, Vascular endothelial growth factor receptor 2 (Homo sapiens, UniProt P35968); assay: Inhibitory activity against VEGFR2 kinase at 20 uM
T4 sequence (P35968 whole entry): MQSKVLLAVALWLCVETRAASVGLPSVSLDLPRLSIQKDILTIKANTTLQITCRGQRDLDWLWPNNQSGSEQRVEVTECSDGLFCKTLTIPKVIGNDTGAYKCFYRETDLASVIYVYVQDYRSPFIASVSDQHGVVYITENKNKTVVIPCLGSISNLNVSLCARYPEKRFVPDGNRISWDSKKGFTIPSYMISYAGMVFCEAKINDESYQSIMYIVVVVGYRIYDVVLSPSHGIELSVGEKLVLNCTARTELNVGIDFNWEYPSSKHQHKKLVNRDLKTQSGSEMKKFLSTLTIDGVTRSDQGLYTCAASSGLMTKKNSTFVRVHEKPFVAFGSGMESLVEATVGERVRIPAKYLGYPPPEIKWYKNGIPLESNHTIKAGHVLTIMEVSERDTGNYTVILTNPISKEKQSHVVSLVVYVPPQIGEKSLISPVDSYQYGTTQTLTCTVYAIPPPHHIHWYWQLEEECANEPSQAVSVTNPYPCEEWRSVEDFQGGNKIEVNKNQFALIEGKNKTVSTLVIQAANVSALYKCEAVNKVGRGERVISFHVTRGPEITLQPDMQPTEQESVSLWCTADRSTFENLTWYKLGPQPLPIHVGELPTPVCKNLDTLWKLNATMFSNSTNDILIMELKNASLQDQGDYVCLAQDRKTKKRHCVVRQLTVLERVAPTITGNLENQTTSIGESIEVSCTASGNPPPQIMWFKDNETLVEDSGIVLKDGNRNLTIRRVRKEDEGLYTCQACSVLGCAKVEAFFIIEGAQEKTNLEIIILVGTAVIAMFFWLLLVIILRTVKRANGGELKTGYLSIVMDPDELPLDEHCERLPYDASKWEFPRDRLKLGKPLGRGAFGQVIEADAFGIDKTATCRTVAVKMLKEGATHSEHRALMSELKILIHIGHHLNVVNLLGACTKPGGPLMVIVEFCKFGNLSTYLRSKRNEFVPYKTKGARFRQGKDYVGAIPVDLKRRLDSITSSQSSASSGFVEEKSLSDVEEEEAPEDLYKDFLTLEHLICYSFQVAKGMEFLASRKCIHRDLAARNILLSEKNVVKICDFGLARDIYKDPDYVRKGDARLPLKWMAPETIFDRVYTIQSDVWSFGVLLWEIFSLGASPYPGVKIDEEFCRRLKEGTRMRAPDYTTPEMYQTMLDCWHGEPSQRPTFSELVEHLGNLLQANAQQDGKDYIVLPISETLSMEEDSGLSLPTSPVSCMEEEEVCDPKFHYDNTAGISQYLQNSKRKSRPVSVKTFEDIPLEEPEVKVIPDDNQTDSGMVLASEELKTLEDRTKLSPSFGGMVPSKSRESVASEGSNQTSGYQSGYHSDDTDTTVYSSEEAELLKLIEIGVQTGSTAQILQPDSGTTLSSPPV

[14] = biological target: T4, Vascular endothelial growth factor receptor 2; assay: Inhibitory activity against VEGFR2 kinase
[15] = biological target: T1, Epidermal growth factor receptor; details: 20 uM
Description: Inhibitory activity against EGFR kinase at 20 uM

[16] = test system: HUVEC; assay: Inhibition of HUVEC tube formation at 2 uM; assay type: functional, cell-based; details: Homo sapiens

| SMILES | Activity [1] | inhibition [2] | IC50 [3] | Activity [5] | Activity [6] | Activity [7] | inhibition [8] | Activity [9] | IC50 [10] | IC50 [11] | inhibition [13] | IC50 [14] | inhibition [15] | IC50 [4] | Activity [12] | Activity [16] |
| --- | --- | --- | --- | --- | --- | --- | --- | --- | --- | --- | --- | --- | --- | --- | --- | --- |
| COC(=O)c1c(OCCN2CCCCC2)c2ccccc2c2oc3c(c12)C(=O)c1ccccc1C3=O | Active | 89.8% | 7.1 µM | Active | Active | Active | 79.1% | Active | 2.8 µM | 5.5 µM | 81.7% | 4.6 µM | 84.3% | 4.3 µM | Active |  |
| COC(=O)c1c(OCCN2CCOCC2)c2ccccc2c2oc3c(c12)C(=O)c1ccccc1C3=O |  | 46.2% |  |  |  |  | 41.4% |  |  |  | 40.7% |  | 67.9% |  |  |  |
| N#CC(C#N)=C(N)/C(C#N)=C/c1cc(O)c(O)c(O)c1 [TYRPHOSTIN 51] |  | 82% | 4.9 µM |  |  |  | 93% |  | 4.1 µM | 2.8 µM | 88% | 4.3 µM | 90% |  |  |  |
| COC(=O)c1c(OC)c2ccccc2c2oc3c(c12)C(=O)c1ccccc1C3=O |  | 12.7% | > 50 µM |  |  |  | 10.5% |  | 12.6 µM | > 50 µM | -0.8% |  | 16.7% |  |  |  |
| COC(=O)c1c(OCCN(C)C)c2ccccc2c2oc3c(c12)C(=O)c1ccccc1C3=O |  | 56.5% | 23.6 µM |  |  |  | 51% |  | 31 µM | 7.6 µM | 57.1% | 13 µM | 71% | 1.1 µM | Active | Active |
| COC(=O)c1c(OCc2ccncc2)c2ccccc2c2oc3c(c12)C(=O)c1ccccc1C3=O |  | 2.9% |  |  |  |  | 2.6% |  |  |  | 3.1% |  | 19.4% |  |  |  |
| CCN(CC)CCOc1c(C(=O)OC)c2c3c(oc2c2ccccc12)C(=O)c1ccccc1C3=O |  | 64.1% | 8.8 µM |  | Active |  | 61.1% |  | 5.1 µM | 15.9 µM | 60.4% | 12.6 µM | 82.1% | 1.7 µM | Active |  |
| COC(=O)c1c(OCc2ccc(OC)cc2)c2ccccc2c2oc3c(c12)C(=O)c1ccccc1C3=O |  | 69.4% |  |  |  |  | 46% |  |  |  | 48.3% |  | 72.6% |  |  |  |
| COC(=O)c1c(OCc2ccc(C(F)(F)F)cc2)c2ccccc2c2oc3c(c12)C(=O)c1ccccc1C3=O |  | 51.5% |  |  |  |  | 44.5% |  |  |  | 40.9% |  | 33.6% |  |  |  |
| COC(=O)c1c(OCCCN(C)C)c2ccccc2c2oc3c(c12)C(=O)c1ccccc1C3=O |  | 57.2% | 38.4 µM |  |  |  | 51.2% |  | 13.6 µM | 10.2 µM | 57.5% | 15.5 µM | 72.4% |  |  |  |
| COC(=O)c1c(OC(C)=O)c2ccccc2c2oc3c(c12)C(=O)c1ccccc1C3=O |  | -0.3% |  |  |  |  | -8.1% |  |  |  |  |  | 21.6% |  |  |  |
| COC(=O)c1c(O)c2ccccc2c2oc3c(c12)C(=O)c1ccccc1C3=O |  | 2.8% |  |  |  |  | 12.6% |  |  |  | 16% |  | 21.4% |  |  |  |

Now from value to compound, other results behind:

| Activity [1] | inhibition [2] | IC50 [3] | Activity [5] | Activity [6] | Activity [7] | inhibition [8] | Activity [9] | IC50 [10] | IC50 [11] | inhibition [13] | IC50 [14] | inhibition [15] | SMILES | IC50 [4] | Activity [12] | Activity [16] |
| --- | --- | --- | --- | --- | --- | --- | --- | --- | --- | --- | --- | --- | --- | --- | --- | --- |
|  | 68.9% |  |  |  |  | 55.5% |  |  |  | 62.1% |  | 68.3% | COC(=O)c1c(OCCCN2CCN(c3ccccc3Cl)CC2)c2ccccc2c2oc3c(c12)C(=O)c1ccccc1C3=O |  |  |  |
|  | 62.2% |  |  |  |  | 50.8% |  |  |  | 52.2% |  | 57.1% | COC(=O)c1c(OCc2ccc(C(=O)OC(C)(C)C)cc2)c2ccccc2c2oc3c(c12)C(=O)c1ccccc1C3=O |  |  |  |
|  | 5.7% | > 50 µM |  |  |  | 2.4% |  | > 50 µM | > 50 µM | -2.1% |  | 38.7% | CCCOc1c(C(=O)OC)c2c3c(oc2c2ccccc12)C(=O)c1ccccc1C3=O |  |  |  |
|  | 52% |  |  |  |  | 48.2% |  |  |  | 43.3% |  | 47.5% | COC(=O)c1c(OCCN2CCN(Cc3ccc(C(F)(F)F)cc3)CC2)c2ccccc2c2oc3c(c12)C(=O)c1ccccc1C3=O |  |  |  |
|  | 95.5% | 23.8 µM |  |  |  | 65.2% |  | 9 µM | 8.7 µM | 86.5% | 5.5 µM | 77.1% | COC(=O)c1c(OCCN2CCCC2)c2ccccc2c2oc3c(c12)C(=O)c1ccccc1C3=O | 1.1 µM |  |  |
